From patent US12122778B2, “Activating pyruvate kinase R” (Novo Nordisk Health Care AG, priority 2018, dated 2024)

Key:
PKR(G332S) = PKR(G332S) (Homo sapiens, UniProt P30613, G332S); assay: Luminescence Biochemical Assay (Kinase Glo Plus), PKR G332S mutant; settings: with FBP; for activation at 1.54 µM: 1.54 μM compound, read-out: AC50 LUM KGP FBP % Fold@1.54 μM mean; for AC50: read-out: AC50 LUM KGP FBP AC50 μM gmean (column A); for Emax: read-out: AC50 LUM KGP FBP MAX % FOLD mean
PKR(R510Q) = PKR(R510Q) (Homo sapiens, UniProt P30613, R510Q); assay: Luminescence Biochemical Assay (Kinase Glo Plus), PKR R510Q mutant; settings: without FBP; for activation at 1.54 µM: 1.54 μM compound, read-out: AC50 LUM KGP woFBP % Fold@1.54 μM mean; for AC50: read-out: AC50 LUM KGP woFBP AC50 μM gmean; for Emax: read-out: AC50 LUM KGP woFBP MAX % FOLD mean
Sequence of PKR(R510Q) (P30613 whole entry R510Q): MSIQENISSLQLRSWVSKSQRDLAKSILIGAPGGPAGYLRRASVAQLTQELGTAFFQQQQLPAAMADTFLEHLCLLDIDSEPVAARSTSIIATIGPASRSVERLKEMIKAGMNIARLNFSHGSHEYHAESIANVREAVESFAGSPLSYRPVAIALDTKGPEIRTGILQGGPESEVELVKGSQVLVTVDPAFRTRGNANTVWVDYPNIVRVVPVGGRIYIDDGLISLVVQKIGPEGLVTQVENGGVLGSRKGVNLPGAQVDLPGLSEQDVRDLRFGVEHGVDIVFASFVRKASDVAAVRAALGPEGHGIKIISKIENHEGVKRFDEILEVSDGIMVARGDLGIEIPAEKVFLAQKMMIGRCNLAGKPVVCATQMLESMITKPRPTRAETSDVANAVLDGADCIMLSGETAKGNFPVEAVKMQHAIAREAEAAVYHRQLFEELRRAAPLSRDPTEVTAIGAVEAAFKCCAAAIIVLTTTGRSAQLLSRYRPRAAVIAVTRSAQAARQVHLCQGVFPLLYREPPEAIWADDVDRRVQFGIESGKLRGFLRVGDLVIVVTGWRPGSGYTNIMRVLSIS

PKR(wt) = PKR(wt) (Homo sapiens, UniProt P30613); assay: Luminescence Biochemical Assay (Kinase Glo Plus), wild type PKR; settings: without FBP; for activation at 1.54 µM: 1.54 μM compound, read-out: AC50 LUM KGP woFBP % Fold@1.54 μM mean; for AC50: read-out: AC50 LUM KGP woFBP AC50 μM gmean; for Emax: read-out: AC50 LUM KGP woFBP MAX % FOLD mean
Sequence of PKR(wt) (P30613 whole entry): as the sequence (P30613 whole entry R510Q) above, with Q510R counted along it

Sequence of PKR(G332S) (P30613 whole entry G332S): as the sequence (P30613 whole entry R510Q) above, with G332S, Q510R counted along it

| SMILES | activation at 1.54 µM (PKR(G332S)) | AC50 (PKR(G332S)) | Emax (PKR(G332S)) | activation at 1.54 µM (PKR(R510Q)) | AC50 (PKR(R510Q)) | Emax (PKR(R510Q)) | activation at 1.54 µM (PKR(wt)) | AC50 (PKR(wt)) | Emax (PKR(wt)) |
| --- | --- | --- | --- | --- | --- | --- | --- | --- | --- |
| O=C(Cc1ccc(F)cc1F)N1CC2=C(C1)CN(S(=O)(=O)c1ccccn1)C2 [Example 18-67, 2-(2,4-Difluorophenyl)-1-[5-(pyridine-2-sulfonyl)-1H,2H,3H,4H,5H,6H-pyrrolo[3,4-c]pyrrol-2-yl]ethan-1-one] | 75 to 250% | 0.1 to 1 µM | 75 to 250% | 75 to 250% | 1 to 40 µM | 250 to 500% | 75 to 250% | 1 to 40 µM | 250 to 500% |
| O=C(NCc1ccccc1F)N1CC2=C(C1)CN(S(=O)(=O)c1ccc3ncsc3c1)C2 [Example 21-20, 5-(1,3-Benzothiazole-6-sulfonyl)-N-[(2-fluorophenyl)methyl]-1H,2H,3H,4H,5H,6H-pyrrolo[3,4-c]pyrrole-2-carboxamide] | 75 to 250% | ≤ 0.1 µM | 75 to 250% | 250 to 50000% | ≤ 0.1 µM | 250 to 500% | 250 to 50000% | ≤ 0.1 µM | 250 to 500% |
| O=C(Cn1cnnn1)N1CC2=C(C1)CN(S(=O)(=O)c1ccc(OC(F)F)cc1)C2 [Example 18-19, 1-(5-((4-(difluoromethoxy)phenyl)sulfonyl)-3,4,5,6-tetrahydropyrrolo[3,4-c]pyrrol-2(1H)-yl)-2-(1H-tetrazol-1-yl)ethan-1-one] | 75 to 250% | ≤ 0.1 µM | 75 to 250% | 250 to 50000% | 0.1 to 1 µM | 250 to 500% | 250 to 50000% | 0.1 to 1 µM | 250 to 500% |
| CC(=O)Nc1ccc(S(=O)(=O)N2CC3=C(CN(C(=O)[C@H](O)c4ccccc4)C3)C2)cc1 [Example 18-56, N-[4-({5-[(2R)-2-hydroxy-2-phenylacetyl]-1H,2H,3H,4H,5H,6H-pyrrolo[3,4-c]pyrrol-2-yl}sulfonyl)phenyl]acetamide] | 75 to 250% | 1 to 40 µM | 75 to 250% | 75 to 250% | 1 to 40 µM | 250 to 500% | 75 to 250% | 1 to 40 µM | 75 to 250% |
| O=C([C@H](O)c1ccccc1)N1CC2=C(C1)CN(S(=O)(=O)c1cccnc1)C2 [Example 4-1, (2R)-2-hydroxy-2-phenyl-1-[5-(pyridine-3-sulfonyl)-1H,2H,3H,4H,5H,6H-pyrrolo[3,4-c]pyrrol-2-yl]ethan-1-one] | 75 to 250% | 0.1 to 1 µM | 75 to 250% | 75 to 250% | 1 to 40 µM | 250 to 500% | 75 to 250% | 0.1 to 1 µM | 75 to 250% |
| COc1ccccc1CNC(=O)N1CC2=C(C1)CN(S(=O)(=O)c1ccc3ncsc3c1)C2 [Example 21-18, 5-(1,3-Benzothiazole-6-sulfonyl)-N-[(2-methoxyphenyl)methyl]-1H,2H,3H,4H,5H,6H-pyrrolo[3,4-c]pyrrole-2-carboxamide] | 75 to 250% | ≤ 0.1 µM | 75 to 250% | 250 to 50000% | 0.1 to 1 µM | 250 to 500% | 250 to 50000% | 0.1 to 1 µM | 250 to 500% |
| Cc1cc(COC(=O)N2CC3=C(C2)CN(S(=O)(=O)c2ccc(OC(F)F)cc2)C3)no1 [Example 22-5, (5-Methyl-1,2-oxazol-3-yl)methyl-5-[4-(difluoromethoxy)benzenesulfonyl]-1H,2H,3H,4H,5H,6H-pyrrolo[3,4-c]pyrrole-2-carboxylate] | 75 to 250% | 0.1 to 1 µM | 75 to 250% | 250 to 50000% | 0.1 to 1 µM | 250 to 500% | 250 to 50000% | 0.1 to 1 µM | 250 to 500% |
